Data from patent publication US20030163846A1, “Process for the genetic modification of a plant” (priority 2000, published 2003).

Assays:
[1] = biological target: T1, AtSUT2 (Arabidopsis thaliana, UniProt O80605); test: substrate specificity and inhibition of saccharose uptake by AtSUT2 in yeast; format: cell-based; settings: for competition with 14C-saccharose uptake: 1 mM saccharose, competitively with other sugars and sugar alcohols
T1 construct: expressed in transfected cells; host or cells: Saccharomyces cerevisiae SEY6210, expression vector pDR196
T1 sequence (O80605 1-594): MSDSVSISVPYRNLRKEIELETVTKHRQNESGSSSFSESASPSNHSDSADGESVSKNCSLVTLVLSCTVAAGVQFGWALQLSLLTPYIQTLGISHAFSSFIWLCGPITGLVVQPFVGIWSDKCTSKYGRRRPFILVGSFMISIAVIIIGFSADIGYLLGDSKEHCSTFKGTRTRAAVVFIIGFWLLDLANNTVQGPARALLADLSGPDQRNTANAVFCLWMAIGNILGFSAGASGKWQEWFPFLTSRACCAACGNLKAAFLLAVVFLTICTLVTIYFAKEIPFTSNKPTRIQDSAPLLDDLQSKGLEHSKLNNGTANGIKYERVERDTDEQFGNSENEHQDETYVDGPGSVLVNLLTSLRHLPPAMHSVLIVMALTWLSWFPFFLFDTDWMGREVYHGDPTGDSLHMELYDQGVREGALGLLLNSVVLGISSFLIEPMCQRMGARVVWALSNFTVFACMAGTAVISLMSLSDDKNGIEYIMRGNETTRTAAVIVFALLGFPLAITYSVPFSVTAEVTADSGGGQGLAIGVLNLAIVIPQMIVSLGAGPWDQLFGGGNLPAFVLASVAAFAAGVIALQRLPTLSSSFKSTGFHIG
Protocol: The saccharose uptake by AtSUT2 was pH-dependent, and the highest uptake rates were measured at a pH of 4.0. […] To determine the substrate specificity of AtSUT2, the saccharose uptake (1 mM saccharose) was measured competitively with other sugars and sugar alcohols.

[2] = tested on: SUT4; test: stimulation/inhibition of uptake of 14C-saccharose by means of SUT4 (FIG. 5C); format: cell-based
Protocol: (§1) For the saccharose uptake tests, yeast was cultivated in a liquid minimal medium containing glucose, up to an OD623 of approximately 0.8. Cells were collected by means of centrifugation, washed in 25 mM sodium phosphate buffer (pH 5.5), and suspended in the same buffer at an OD623 of 20. The uptake tests were initiated by adding glucose ending at a final concentration of 10 mM to the yeast cells one minute before adding ^14C-saccharose. Following incubation at 30° C. while stirring, cells were collected by means of vacuum filtration on fiberglass filters (1-5 minutes), washed twice with 4 mL 10 mM saccharose (at the freezing point), and the radioactivity was determined using a liquid scintillation counter. […] A significant difference compared with the vector controls is apparent.
The stimulation of the uptake of ^14C-saccharose by means of SUT4 through glucose and the inhibition through an electron transport inhibitor (antimycin A and the protonophore CCCP is shown in FIG. 5C).

[3] = tested on: leaf blades; settings: high affinity/low capacity system, cited from earlier work
[4] = 14C-saccharose uptake tests in yeast expressing SUT4 (SUSY7/ura3); format: cell-based
Protocol: The yeast strain SUSY7/ura3 is a modified version of SUSY7 (Riesmeier et al., EMBO J. (1992) 11, 4705-4713), which contains a deletion of a portion of the URA3 gene and, as a result, permits selection for uracil auxotrophy. Media that contained the 1.7 g/L yeast nitrogen base without amino acids (Difco), 2% saccharose, 20 mg/L tryptophane, and 1.5% agarose, pH 5.0, were used to analyze yeast growth on a saccharose medium.
as §1
Data for the kinetic analysis were obtained for SUT4 from a nonlinear regression of the uptake measurements using the Michaelis-Menten equation. Km was represented as an average of eight determinations using three independent transformants±standard deviation. The KM value for saccharose that was determined was 11.6±0.6 mM (at a pH of 5.5) and 5.9±0.8 mM (at a pH of 4.0) for SUT4 from arabidopsis. For SUT4 from Solanum tuberosum the KM value was 6.0±1.2 mM (pH 4.0) (see FIG. 5B).

[5] = 14-C saccharose uptake tests in yeast strain SEY6210 expressing AtSUT2, StSUT1 or chimeric proteins; format: cell-based; settings: for Km: AtSUT2 at a pH of 4
Protocol: It was shown that the saccharose uptake by yeast cells that express AtSUT2 was linear in the first five minutes of the test. During this period, 0.1 nmol saccharose accumulated in 10^8 cells. […] By contrast, the transport rate with StSUT1-expressing cells was 400 times greater than with AtSUT2-expressing cells. […] Using the Michaelis-Menten equation and a nonlinear regression analysis, a KM value of 11.7±1.2 mM
Table: KM values for saccharose of the saccharose transporters StSUT1 and AtSUT2 as well as of chimeric proteins in which the N-terminal regions or central cytoplasmic loops are exchanged between the two transporters. The values were determined as mean values±standard errors from at least three different measurements. Different letters indicate significant differences (p<0.05).

## N#CC(C#N)=NNc1cccc(Cl)c1 [CCCP]
[1]
  inhibition of saccharose transport by means of AtSUT2: inhibited
[2]
  effect on uptake of 14C-saccharose by means of SUT4: inhibition

## O=C[C@H](O)[C@@H](O)[C@@H](O)[C@H](O)CO [galactose]
[1]
  competition with 14C-saccharose uptake: only the saccharose and to a lesser extent maltose were able to compete significantly

## OC[C@@H](O)[C@@H](O)[C@H](O)[C@H](O)CO[C@H]1O[C@H](CO)[C@@H](O)[C@H](O)[C@H]1O [glucomannitol]
[1]
  competition with 14C-saccharose uptake: only the saccharose and to a lesser extent maltose were able to compete significantly

## OC[C@H](O)[C@@H](O)[C@H](O)[C@H](O)CO[C@H]1O[C@H](CO)[C@@H](O)[C@H](O)[C@H]1O [glucosorbitol]
[1]
  competition with 14C-saccharose uptake: only the saccharose and to a lesser extent maltose were able to compete significantly

## OC[C@H]1O[C@H](OC[C@H]2OC(O)(CO)[C@@H](O)[C@@H]2O)[C@H](O)[C@@H](O)[C@@H]1O (some centres unmarked) [isomaltulose]
[1]
  competition with 14C-saccharose uptake: only the saccharose and to a lesser extent maltose were able to compete significantly

## OC[C@H]1O[C@@H](O[C@H]2[C@H](O)[C@@H](O)C(O)O[C@@H]2CO)[C@H](O)[C@@H](O)[C@H]1O (some centres unmarked) [lactose]
[1]
  competition with 14C-saccharose uptake: only the saccharose and to a lesser extent maltose were able to compete significantly

## OC[C@@H](O)[C@@H](O)[C@H](O)[C@H](O)CO [mannitol]
[1]
  competition with 14C-saccharose uptake: only the saccharose and to a lesser extent maltose were able to compete significantly

## OC[C@H]1O[C@H](OC[C@H]2O[C@H](O[C@]3(CO)O[C@H](CO)[C@@H](O)[C@@H]3O)[C@H](O)[C@@H](O)[C@@H]2O)[C@H](O)[C@@H](O)[C@H]1O [raffinose]
[1]
  competition with 14C-saccharose uptake: only the saccharose and to a lesser extent maltose were able to compete significantly

## OC[C@H]1O[C@@](CO)(O[C@H]2O[C@H](CO)[C@@H](O)[C@H](O)[C@H]2O)[C@@H](O)[C@@H]1O [saccharose]
[1]
  competition with 14C-saccharose uptake: able to compete significantly
[3]; read-out: Km of saccharose intake
  Km: 2.7 mM
[3]
  Vmax of saccharose intake: 0.7 nmol cm^−2 min^−1

## OC[C@@H](O)[C@@H](O)[C@H](O)[C@@H](O)CO [sorbitol]
[1]
  competition with 14C-saccharose uptake: only the saccharose and to a lesser extent maltose were able to compete significantly

## antimycin A
[1]
  inhibition of saccharose transport by means of AtSUT2: inhibited
[2]
  effect on uptake of 14C-saccharose by means of SUT4: inhibition

B1: StSUT4: saccharose transporter SUT4 from Solanum tuberosum, amino acid sequence SEQ ID no. 28 (protein, listed as Solanum tuberosum)
chain: MPEIERHRTRHNRPAIREPVKPRVPLRLLFRVASVAGGIQFGWALQLSLLTPYVQELGIPHAWASIIWLCGPLSGLLVQPLVGHMSDKCTSRFGRRRPFIVAGAVSIMIAVLIIGFSADIGWLLGDRGEIKVRAIAAFVVGFWLLDVANNMTQGPCRALLADLTQKDHRRTRVANAYFSLFMAIGNILGFATGSYSGWFKIFPFTLNTACTINCANLKAAFIIDIIFIATTTCISISAANEQPLDPSRGSSHTREEIGESSHGQEEAFLWELFGIFKYFPGVVWVILLVTALTWIGWFPFLLFDTDWFGREIYGGEPNDGKNYSAGVRMGSLGLMLNSVLLGLTSLFMEKLCRKWGAGFTWGVSNVVMSLCFIAMLIITAVRSNIDIGQGLPPDGIVIAALVVFSILGIPLAITYSVPYALVSSRIDALGLGQGLSMGVLNLAIVFPQIVVSLGSGPWDELFGGGNSPAFVVAALSAFAGGLIAILAIPRTRVEKPKIFA
[4]; FIG. 5A
  functional saccharose transporter (uptake of 14C-saccharose vs vector controls): functional saccharose transporters
[4]; pH 4.0, Michaelis-Menten nonlinear regression, average ± standard deviation
  Km: 6 ± 1.2 mM

B2: StSUT1: high-affinity saccharose transporter SUT1 from Solanum tuberosum, SEQ ID no. 23 (protein, listed as Solanum tuberosum)
chain: MENGTKREGLGKLTVSSSLQVEQPLAPSKLWKIIVVASIAAGVQFGWALQLSLLTPYVQLLGIPHKFASFIWLCGPISGMIVQPVVGYYSDNCSSRFGRRRPFIAAGAALVMIAVFLIGFAADLGHASGDTLGKGFKPRAIAVFVVGFWILDVANNMLQGPCRALLADLSGGKSGRMRTANAFFSFFMAVGNILGYAAGSYSHLFKVFPFSKTKACDMYCANLKSCFFIAIFLLLSLTTIALTLVRENELPEKDEQEIDEKLAGAGKSKVPFFGEIFGALKELPRPMWILLLVTCLNWIAWFPFFLYDTDWMAKEVFGGQVGDARLYDLGVRAGAMGLLLQSVVLGFMSLGVEFLGKKIGGAKRLWGILNFVLAICLAMTILVTKMAEKSRQHDPAGTLMGPTPGVKIGALLLFAALGIPLAATFSIPFALASIFSSNRGSGQGLSLGVLNLAIVVPQMLVSLVGGPWDDLFGGGNLPGFVVGAVAAAASAVLALTMLPSPPADAKPAVAMGGFH
[5]
  KM value for saccharose, fold lower than AtSUT2: 10 times
  transport rate relative to AtSUT2-expressing cells: 400 times
[5]; table
  Vmax: 210.2 ± 5.7 nmol saccharose min^−1 10^8 ce
[5]; yeast SEY6210
  Vmax: 210.2 nmol·min^−1 10^8 cells^−1
  Km: 1.7 mM

B3: AtSUT2: SUT2 from Arabidopsis thaliana, SEQ ID no. 7; low-affinity saccharose transporter, sensor and/or regulator (protein, listed as Arabidopsis thaliana)
chain: MSDSVSISVPYRNLRKEIELETVTKHRQNESGSSSFSESASPSNHSDSADGESVSKNCSLVTLVLSCTVAAGVQFGWALQLSLLTPYIQTLGISHAFSSFIWLCGPITGLVVQPFVGIWSDKCTSKYGRRRPFILVGSFMISIAVIIIGFSADIGYLLGDSKEHCSTFKGTRTRAAVVFIIGFWLLDLANNTVQGPARALLADLSGPDQRNTANAVFCLWMAIGNILGFSAGASGKWQEWFPFLTSRACCAACGNLKAAFLLAVVFLTICTLVTIYFAKEIPFTSNKPTRIQDSAPLLDDLQSKGLEHSKLNNGTANGIKYERVERDTDEQFGNSENEHQDETYVDGPGSVLVNLLTSLRHLPPAMHSVLIVMALTWLSWFPFFLFDTDWMGREVYHGDPTGDSLHMELYDQGVREGALGLLLNSVVLGISSFLIEPMCQRMGARVVWALSNFTVFACMAGTAVISLMSLSDDKNGIEYIMRGNETTRTAAVIVFALLGFPLAITYSVPFSVTAEVTADSGGGQGLAIGVLNLAIVIPQMIVSLGAGPWDQLFGGGNLPAFVLASVAAFAAGVIALQRLPTLSSSFKSTGFHIG
[5]
  pH of highest uptake rates: 4.0
[5]; first five minutes of the test, in 10^8 cells
  saccharose accumulated in 10^8 cells: 0.1 nmol
[5]; p<0.05
  uptake of saccharose compared with yeast cells expressing empty vector pDR196: significantly higher
[5]; pH of 6
  saccharose uptake at a pH of 6: no further saccharose uptake was measured
[5]; table
  Vmax: 1.5 ± 0.1 nmol saccharose min^−1 10^8 ce
[5]; yeast SEY6210
  Vmax: 1.5 nmol·min^−1 10^8 cells^−1
  Km: 11.7 mM
